# Source: the SangsterLogP compilation
# Experiment: method code SF, from DOI: 10.1021/jm00128a037, PMID: 2754714
row,logP,SMILES
1,-0.74,CCOC(=O)Cc1cc(CN2CCCC2)c(O)c(CN2CCCC2)c1
2,0.1,CC(C)COC(=O)Cc1cc(CN2CCCC2)c(O)c(CN2CCCC2)c1
3,0.3,CCCCOC(=O)CCc1cc(CN2CCCC2)c(O)c(CN2CCCC2)c1
4,-0.41,CC(C)OC(=O)Cc1cc(CN2CCCC2)c(O)c(CN2CCCC2)c1
5,0.18,CCCCOC(=O)Cc1cc(CN2CCCC2)c(O)c(CN2CCCC2)c1
6,0.86,CC(C)COC(=O)CCCc1cc(CN2CCCC2)c(O)c(CN2CCCC2)c1
7,-0.37,CCCOC(=O)Cc1cc(CN2CCCC2)c(O)c(CN2CCCC2)c1
8,-0.21,CC(C)OC(=O)CCc1cc(CN2CCCC2)c(O)c(CN2CCCC2)c1
9,1.11,CCCCOC(=O)CCCc1cc(CN2CCCC2)c(O)c(CN2CCCC2)c1
10,-0.11,CCCOC(=O)CCc1cc(CN2CCCC2)c(O)c(CN2CCCC2)c1
11,0.19,CC(C)COC(=O)CCc1cc(CN2CCCC2)c(O)c(CN2CCCC2)c1
